Patent US9321766B1, “Kinase inhibitors” (Allergan, Inc., priority 2014, dated 2016)

What was measured:
[1] = molecular target: VEGFR2 (KDR) kinase (Homo sapiens (Human), UniProt P35968); test: VEGFR2 Kinase Assay (biochemical KDR kinase assay, poly-Glu-Tyr ELISA); conditions: purified cytoplasmic domain KDR protein, 2.7 μM ATP
Experimental: VEGFR2 kinase potency of select analogs was determined by the following assay:
Biochemical KDR kinase assays were performed in 96 well microtiter plates that were coated overnight with 75 μg/well of poly-Glu-Tyr (4:1) in 10 mM Phosphate Buffered Saline (PBS), pH 7.4. The coated plates were washed with 2 mls per well PBS+0.05% Tween-20 (PBS-T), blocked by incubation with PBS containing 1% BSA, then washed with 2 mls per well PBS-T prior to starting the reaction. Reactions were carried out in 100 μL reaction volumes containing 2.7 μM ATP in kinase buffer (50 mM Hepes buffer pH 7.4, 20 mM MgCl2, 0.1 mM MnCl2 and 0.2 mM Na3VO4). Test compounds were reconstituted in 100% DMSO and added to the reaction to give a final DMSO concentration of 5%. Reactions were initiated by the addition 20 ul per well of kinase buffer containing 200-300 ng purified cytoplasmic domain KDR protein (BPS Bioscience, San Diego, Calif.). Following a 15 minute incubation at 30° C., the reactions were washed 2 mls per well PBS-T. 100 μl of a monoclonal anti-phosphotyrosine antibody-peroxidase conjugate diluted 1:10,000 in PBS-T was added to the wells for 30 minutes. Following a 2 mis per well wash with PBS-Tween-20, 100μl of O-Phenylenediamine Dihydrochloride in phosphate-citrate buffer, containing urea hydrogen peroxide, was added to the wells for 7-10 minutes as a colorimetric substrate for the peroxidase. The reaction was terminated by the addition of 100 μl of 2.5N H2SO4 to each well and read using a microplate ELISA reader set at 492 nm. IC50 values for compound inhibition were calculated directly from graphs of optical density (arbitrary units) versus compound concentration following subtraction of blank values.

[2] = molecular target: PDGFRβ kinase (Homo sapiens (Human), UniProt P09619); test: PDGFRβ Kinase Assay (biochemical, poly-Glu-Tyr ELISA); conditions: purified cytoplasmic domain PDGFR-b protein, 36 μM ATP
PDGFRβ kinase, sequence (P09619 554-1106): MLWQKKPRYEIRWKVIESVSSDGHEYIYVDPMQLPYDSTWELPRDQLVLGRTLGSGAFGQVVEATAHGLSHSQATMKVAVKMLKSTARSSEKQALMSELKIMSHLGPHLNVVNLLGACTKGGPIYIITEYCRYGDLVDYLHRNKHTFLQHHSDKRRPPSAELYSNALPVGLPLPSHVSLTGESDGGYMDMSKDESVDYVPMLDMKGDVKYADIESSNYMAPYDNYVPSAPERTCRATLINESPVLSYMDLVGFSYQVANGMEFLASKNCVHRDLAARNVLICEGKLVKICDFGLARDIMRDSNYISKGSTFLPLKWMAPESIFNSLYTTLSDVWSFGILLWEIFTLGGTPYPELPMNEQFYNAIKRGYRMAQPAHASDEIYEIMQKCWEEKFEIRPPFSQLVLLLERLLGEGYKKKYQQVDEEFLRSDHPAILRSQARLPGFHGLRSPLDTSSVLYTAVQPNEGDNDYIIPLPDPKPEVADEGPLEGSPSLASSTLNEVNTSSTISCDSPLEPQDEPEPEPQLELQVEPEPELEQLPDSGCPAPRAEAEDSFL
Experimental: Biochemical PDGFR3 kinase assays were performed in 96 well microtiter plates that were coated overnight with 75 μg of poly-Glu-Tyr (4:1) in 10 mM Phosphate Buffered Saline (PBS), pH 7.4. The coated plates were washed with 2 mls per well PBS+0.05% Tween-20 (PBS-T), blocked by incubation with PBS containing 1% BSA, then washed with 2 mls per well PBS-T prior to starting the reaction. Reactions were carried out in 100 μL reaction volumes containing 36 μM ATP in kinase buffer (50 mM Hepes buffer pH 7.4, 20 mM MgCl2, 0.1 mM MnCl2 and 0.2 mM Na3VO4). Test compounds were reconstituted in 100% DMSO and added to the reaction to give a final DMSO concentration of 5%. Reactions were initiated by the addition 20 ul per well of kinase buffer containing 200-300 ng purified cytoplasmic domain PDGFR-b protein (Millipore). Following a 60 minute incubation at 30° C., the reactions were washed 2 mls per well PBS-T. 100 μl of a monoclonal anti-phosphotyrosine antibody-peroxidase conjugate diluted 1:10,000 in PBS-T was added to the wells for 30 minutes. Following a 2 mls per well wash with PBS-Tween-20, 100 μl of O-Phenylenediamine Dihydrochloride in phosphate-citrate buffer, containing urea hydrogen peroxide, was added to the wells for 7-10 minutes as a colorimetric substrate for the peroxidase. The reaction was terminated by the addition of 100 μl of 2.5N H2SO4 to each well and read using a microplate ELISA reader set at 492 nm. IC50 values for compound inhibition were calculated directly from graphs of optical density (arbitrary units) versus compound concentration following subtraction of blank values.

VEGFR2 (KDR) kinase, sequence (P35968 786-1356, species assumed): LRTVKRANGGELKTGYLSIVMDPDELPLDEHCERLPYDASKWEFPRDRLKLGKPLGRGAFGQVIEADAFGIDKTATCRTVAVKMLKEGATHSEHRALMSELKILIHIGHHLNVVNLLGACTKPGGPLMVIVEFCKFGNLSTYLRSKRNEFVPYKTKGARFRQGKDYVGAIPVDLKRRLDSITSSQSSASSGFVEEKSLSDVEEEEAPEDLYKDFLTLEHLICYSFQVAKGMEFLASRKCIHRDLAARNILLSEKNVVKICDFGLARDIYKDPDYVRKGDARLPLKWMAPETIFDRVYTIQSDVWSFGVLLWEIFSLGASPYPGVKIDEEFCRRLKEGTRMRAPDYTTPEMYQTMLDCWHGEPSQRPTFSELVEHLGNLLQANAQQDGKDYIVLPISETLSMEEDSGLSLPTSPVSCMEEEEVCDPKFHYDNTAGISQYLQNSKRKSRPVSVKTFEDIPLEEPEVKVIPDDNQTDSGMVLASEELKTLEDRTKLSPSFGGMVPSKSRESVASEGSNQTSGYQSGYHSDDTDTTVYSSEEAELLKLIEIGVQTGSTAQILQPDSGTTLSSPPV

| Compound | IC50 [1] | IC50 [2] |
| --- | --- | --- |
| CC(C)(C)c1ccc(-n2cccc(N3CCc4nc(N)ncc4C3)c2=O)cc1 [Example 2, 3-(2-amino-7,8-dihydropyrido[4,3-d]pyrimidin-6(5H)-yl)-1-(4-(tert-butyl)phenyl)pyridin-2(1H)-one] | 286 nM | 655 nM |
| Cc1cc[nH]c(=O)c1N1CCc2nc(N)ncc2C1 [Example 3, 3-(2-amino-7,8-dihydropyrido[4,3-d]pyrimidin-6(5H)-yl)-4-methylpyridin-2(1H)-one] | > 10000 nM | 3890 nM |
| Cc1ccn(-c2ccc(C(C)(C)C)cc2)c(=O)c1N1CCc2nc(N)ncc2C1 [Example 4, 3-(2-amino-7,8-dihydropyrido[4,3-d]pyrimidin-6(5H)-yl)-1-(4-tert-butylphenyl)-4-methylpyridin-2(1H)-one] | 86 nM | 381 nM |
| Cc1ccn(-c2cccc(N(C)C)c2)c(=O)c1N1CCc2nc(N)ncc2C1 [Example 14, 3-(2-amino-7,8-dihydropyrido[4,3-d]pyrimidin-6(5H)-yl)-1-[3-(dimethylamino)phenyl]-4-methylpyridin-2(1H)-one] | 327 nM | > 1000 nM |
| Cc1ccoc1C(=O)Nc1ccc(-n2ccc(C)c(N3CCc4nc(N)ncc4C3)c2=O)cc1 [Example 17, N-{4-[3-(2-amino-7,8-dihydropyrido[4,3-d]pyrimidin-6(5H)-yl)-4-methyl-2-oxopyridin-1(2H)-yl]phenyl}-3-methyl-2-furamide] | 29 nM | 33 nM |
